Laboratory results: publication PMC11123921, “Synthesis and Evaluation of 5-(Heteroarylmethylene)hydantoins as Glycogen Synthase Kinase-3β Inhibitors” (Pharmaceuticals, 2024)
Where a name gives a salt, the structure may show the parent alone. Read-outs that look alike come from different tables or passages of the source.

Tests used:
[1] = biological target: T1, GSK-3β (Homo sapiens, UniProt P49841); assay: GSK-3β kinase HotSpot assay (Reaction Biology); format: biochemical; conditions: 10 μM ATP; for activity at 25 µM: 25 μM compound, duplicate, average, remaining kinase activity vs vehicle; for IC50: 10-point, triplicate, average ± SD
T1 sequence (P49841 whole entry): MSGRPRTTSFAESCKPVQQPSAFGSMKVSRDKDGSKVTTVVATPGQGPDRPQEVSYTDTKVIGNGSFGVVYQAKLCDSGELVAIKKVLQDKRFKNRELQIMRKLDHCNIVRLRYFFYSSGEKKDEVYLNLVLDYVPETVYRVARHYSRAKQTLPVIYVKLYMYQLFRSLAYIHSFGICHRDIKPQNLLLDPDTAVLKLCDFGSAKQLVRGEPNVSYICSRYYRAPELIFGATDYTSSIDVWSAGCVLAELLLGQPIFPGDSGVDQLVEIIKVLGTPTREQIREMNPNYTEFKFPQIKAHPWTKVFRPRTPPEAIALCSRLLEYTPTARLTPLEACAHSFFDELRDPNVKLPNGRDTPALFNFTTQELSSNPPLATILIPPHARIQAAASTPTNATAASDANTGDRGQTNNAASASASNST

[2] = biological target: human matrix metalloproteinase-12 (Homo sapiens, UniProt P39900); assay: Matrix metalloproteinase-12 fluorogenic substrate assay; format: biochemical; conditions: for activity at 25 µM: 25 μM compound, read-out: MMP-12 % Activity @ 25 μM; for activity at 200 µM: 200 μM compound, read-out: MMP-12 % Activity @ 200 μM
Sequence of human matrix metalloproteinase-12 (P39900 106-470): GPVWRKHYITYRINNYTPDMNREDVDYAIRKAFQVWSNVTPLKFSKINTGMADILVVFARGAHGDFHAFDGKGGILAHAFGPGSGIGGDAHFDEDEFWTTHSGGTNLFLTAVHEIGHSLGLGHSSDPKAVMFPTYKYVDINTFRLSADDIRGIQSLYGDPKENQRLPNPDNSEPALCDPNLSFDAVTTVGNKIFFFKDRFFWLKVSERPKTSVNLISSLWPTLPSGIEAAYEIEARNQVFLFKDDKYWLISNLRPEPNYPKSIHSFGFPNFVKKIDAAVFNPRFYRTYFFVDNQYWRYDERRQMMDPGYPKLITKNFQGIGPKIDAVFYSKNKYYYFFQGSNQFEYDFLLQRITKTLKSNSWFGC
Description: (§1) 5-(Heteroarylmethylene)hydantoins were evaluated as inhibitors for MMP-12 at fixed concentrations of 200 and 25 μM (Table 1). At 200 μM of 20–24, the activity of MMP-12 was ≤50% the activity of positive control; for compounds 21, 24, and 25 at 25 μM, the activity of MMP12 was 69–74% while the activity for the others was >80%. […] A select subset of the 5-(heteroarylmethylene)hydantoins were evaluated as inhibitors of human carbonic anhydrase II (hCAII) at 200 μM (Table 1). […] Finally, this same subset of 5-(heteroarylmethylene)hydantoins were evaluated as inhibitors of isolated S. aureus pyruvate carboxylase (SaPC) in a fixed-time assay (Table 1). No inhibitory activity was observed up to 1000 μM.
Assays for human matrix metalloproteinase-12 activity were performed in a 96-well plate format for a total reaction volume of 100 μL, in an assay modified from Day and Cohen. All assay reagents were prepared and maintained at 22 °C until warmed to 37 °C. The omniMMP fluorogenic substrate and MMP-12 enzyme were prepared in assay buffer (50 mM HEPES, 10 mM CaCl2, 0.05% Brij-35, pH of 7.52), and small molecule effectors were prepared as a solution in 50% DMSO, 50% assay buffer. The final concentration of enzyme in the 100 μL enzymatic reaction was 0.0083 U/μL. A known inhibitor, N-[(4’-bromo [1,1’-biphenyl]-4-yl)sulfonyl]-L-valine (PD166793), was included where noted at a final concentration of 100 μM. OmniMMP fluorogenic substrate was added to the 100 μL enzymatic reaction at a final concentration of 4 μM. For all experiments, 30 μL of enzyme stock solution was added to each well in a 96-well, flat-bottom, black polystyrene microplate (SantaCruz Biotechnology, Dallas, TX, USA), followed by the addition of 10 μL of the effectors (50% assay buffer, 50% DMSO for the uninhibited reaction, PD166793 for the inhibition). The 96-well plate was then incubated in a plate reader at 37 °C for 30 min; concurrently, the substrate solution was also warmed to 37 °C for 30 min. The enzymatic reaction was initiated by adding 60 μL of the omniMMP fluorogenic substrate solution. The change in fluorescence was then monitored for 30 min with excitation and emission wavelengths at 320 and 400 nm, respectively, every 46 s for a total of 40 measurements.

[3] = biological target: human carbonic anhydrase II (hCAII) (Homo sapiens, UniProt P00918); assay: Human carbonic anhydrase II p-nitrophenyl acetate assay; format: biochemical; conditions: 200 μM compound
Description: as §1
Assays for human carbonic anhydrase II activity were performed in a 96-well plate format for a total reaction volume of 100 μL, in an assay modified from Day and Cohen. All assay reagents and solutions were prepared separately and maintained at 22 °C until warmed to 30 °C. All substrates, effectors, and enzyme were freshly dissolved and diluted in assay buffer containing 50 mM Tris (pH 8.0). The final concentration of the human carbonic anhydrase II enzyme was 200 nM. Where noted, acetazolamide was included at a final concentration of 10 μM. The substrate, p-nitrophenyl acetate, was added at a final concentration of 504 μM. For all experiments, 20 μL of enzyme stock solution was added to each well in a 96-well, flat-bottom, polystyrene microplate (Santa Cruz Biotechnology, Dallas, TX, USA), followed by the addition of 10 μL of the effectors (assay buffer for the uninhibited reaction, acetazolamide for the inhibition). The 96-well plate was then incubated in a plate reader at 30 °C for 10 min; concurrently, the substrate solution was also warmed to 30 °C for 10 min. The enzymatic reaction was initiated by adding 70 μL of the substrate solution (p-nitrophenyl acetate). The absorbance values were then measured at 405 nm every 30 s over a period of 20 min for a total of 40 measurements.

[4] = biological target: T2, Staphylococcus aureus pyruvate carboxylase (SaPC) (Staphylococcus aureus, UniProt A0A0H3JRU9); assay: biochemical; conditions: isolated SaPC
T2 sequence (A0A0H3JRU9 1-1150): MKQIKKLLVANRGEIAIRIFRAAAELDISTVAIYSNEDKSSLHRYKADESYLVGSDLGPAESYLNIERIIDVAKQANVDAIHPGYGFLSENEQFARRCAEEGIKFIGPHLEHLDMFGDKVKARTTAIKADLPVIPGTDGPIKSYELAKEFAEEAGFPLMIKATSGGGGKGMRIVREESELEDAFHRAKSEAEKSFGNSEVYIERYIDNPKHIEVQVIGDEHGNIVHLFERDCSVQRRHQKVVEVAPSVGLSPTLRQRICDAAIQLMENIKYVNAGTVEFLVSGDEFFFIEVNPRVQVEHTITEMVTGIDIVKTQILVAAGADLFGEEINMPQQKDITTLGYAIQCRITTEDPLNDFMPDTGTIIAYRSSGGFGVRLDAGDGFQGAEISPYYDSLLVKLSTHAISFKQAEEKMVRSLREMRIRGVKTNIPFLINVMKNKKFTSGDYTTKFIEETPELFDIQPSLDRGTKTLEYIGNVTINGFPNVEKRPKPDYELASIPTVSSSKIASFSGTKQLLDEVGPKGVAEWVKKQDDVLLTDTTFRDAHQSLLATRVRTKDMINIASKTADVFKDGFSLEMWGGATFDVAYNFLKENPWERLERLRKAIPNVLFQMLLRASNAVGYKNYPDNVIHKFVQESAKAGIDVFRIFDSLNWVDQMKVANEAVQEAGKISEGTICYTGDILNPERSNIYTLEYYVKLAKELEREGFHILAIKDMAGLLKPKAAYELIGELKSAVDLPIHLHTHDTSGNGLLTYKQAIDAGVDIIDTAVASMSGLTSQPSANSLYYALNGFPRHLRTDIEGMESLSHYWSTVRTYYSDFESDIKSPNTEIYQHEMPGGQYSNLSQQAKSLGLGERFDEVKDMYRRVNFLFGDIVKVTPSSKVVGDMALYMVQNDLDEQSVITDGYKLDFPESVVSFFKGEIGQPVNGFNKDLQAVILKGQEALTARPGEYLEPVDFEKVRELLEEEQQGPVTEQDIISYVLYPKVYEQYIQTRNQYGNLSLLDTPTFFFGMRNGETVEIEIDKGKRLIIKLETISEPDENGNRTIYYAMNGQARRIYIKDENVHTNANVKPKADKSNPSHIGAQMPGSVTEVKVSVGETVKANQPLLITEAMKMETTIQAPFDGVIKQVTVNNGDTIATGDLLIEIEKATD

[5] = tested on: cancer migration; parameters: method as in PMID 20869139; conditions: cited from earlier work
[6] = biological target: T1, GSK-3β; conditions: cited from earlier work

Compound | activity at 25 µM [1] [%] | IC50 [1] [µM] | activity at 25 µM [2] [%] | activity at 200 µM [2] [%] | activity at 200 µM [3] [%] | IC50 [4] [µM] | melting point [°C] | activity as cancer migration inhibitors [5] | hCAII % Activity @ 200 μM ([3]; 200 µM) [%] | IC50 [6] [µM]
COc1cccc(/C=C2\NC(=O)NC2=O)n1 [Compound 15, (Z)-5-[(6′-Methoxy-2-pyridinyl)methylene]-2,4-imidazolidinedione] | 17.3 | 4.06 ± 0.3 | 87.5 | 74 | 82.1 ± 11 | > 1000 | 249 to 251 |  |  | 
O=C1NC(=O)/C(=C/c2cccc(-c3cccs3)n2)N1 [Compound 16] |  |  |  |  |  |  |  | notable activity |  | 
O=C1NC(=O)/C(=C/c2ccccn2)N1 [Compound 17, (Z)-5-[(2′-Pyridinyl)methylene]-2,4-imidazolidinedione] | 55.4 |  |  |  |  |  | 231 to 233 |  |  | 
O=C1NC(=O)/C(=C/c2ccc3ccccc3n2)N1 [Compound 18, (Z)-5-[(2-Quinolinyl)methylene]-2,4-imidazolidinedione] | 32.9 |  | 94.1 | 57.6 |  | > 1000 | > 255 |  |  | 
O=C1NC(=O)/C(=C/c2cccnc2)N1 [Compound 19, (Z)-5-[(3′-Pyridinyl)methylene]-2,4-imidazolidinedione] | 71.8 |  | 84.2 | 50.6 | 88.9 ± 12.3 | > 1000 | > 255 |  |  | 
Cc1cccnc1/C=C1\NC(=O)NC1=O [Compound 20, (Z)-5-[(3′-Methyl-2-pyridinyl)methylene]-2,4-imidazolidinedione] | 31.6 |  | 108 | 39.6 |  |  | 245 to 248 |  |  | 
Cc1ccnc(/C=C2\NC(=O)NC2=O)c1 [Compound 21, (Z)-5-[(4′-Methyl-2-pyridinyl)methylene]-2,4-imidazolidinedione-HCl] | 42 |  | 71.6 | 28.5 | 94.8 ± 12.8 | > 1000 |  |  |  | 
Cc1ccc(/C=C2\NC(=O)NC2=O)nc1 [Compound 22, (Z)-5-[(5′-Methyl-2-pyridinyl)methylene]-2,4-imidazolidinedione] | 47 |  | 101 | 40.7 | 87.4 ± 11.8 | > 1000 | > 250 |  |  | 
Cc1cccc(/C=C2\NC(=O)NC2=O)n1 [Compound 23, (Z)-5-[(6′-Methyl-2-pyridinyl)methylene]-2,4-imidazolidinedione-HCl] | 28.4 | 8.34 ± 0.27 | 86.4 | 46.5 | 88.9 ± 12.3 | > 1000 |  |  |  | 
O=C1NC(=O)/C(=C/c2ncccc2Cl)N1 [Compound 24, (Z)-5-[(3′-Chloro-2-pyridinyl)methylene]-2,4-imidazolidinedione-HCl] | 44.6 |  | 69.1 | 39.2 | 91.8 ± 14.7 | > 1000 |  |  |  | 
O=C1NC(=O)/C(=C/c2cc(Cl)ccn2)N1 [Compound 25, (Z)-5-[(4′-Chloro-2-pyridinyl)methylene]-2,4-imidazolidinedione-HCl] | 15.4 | 2.14 ± 0.18 | 73.9 | 50 | 57 ± 16.4 | > 1000 |  |  |  | 
O=C1NC(=O)/C(=C/c2ccc(Br)cn2)N1 [Compound 26, (Z)-5-[(5′-Bromo-2-pyridinyl)methylene]-2,4-imidazolidinedione] | 35.3 |  | 98.6 | 72.9 |  |  | > 255 |  |  | 
O=C1NC(=O)/C(=C/c2cccc(Br)n2)N1 [Compound 27, (Z)-5-[(6′-Bromo-2-pyridinyl)methylene]-2,4-imidazolidinedione] | 17 | 3.39 ± 0.16 | 85.8 | 88.7 | 86.7 ± 12.1 | > 1000 | > 250 |  |  | 
O=C1NC(=O)/C(=C/c2ccc3ncccc3c2)N1 [Compound 28, (Z)-5-[(6′-Quinolinyl)methylene]-2,4-imidazolidinedione] | 22.5 | 7.82 ± 0.12 | 81.8 | 61.6 |  |  | > 250 |  |  | 
O=C1NC(=O)/C(=C/c2csc3ccccc23)N1 [Compound 29, (Z)-5-[(3-Benzo[b]thiophenyl)methylene]-2,4-imidazolidinedione] | 27.9 |  | 98.1 | 88 | 63 | > 1000 | > 250 |  | 62.7 ± 9.8 | 
indirubin-3-monoxime |  |  |  |  |  |  |  |  |  | 0.022
